Data reported in PMC12769565, “Design, synthesis and biological activity of glycoconjugated ADAMTS5 exosite inhibitors: applications in osteoarthritis and ovarian cancer models” (Scientific Reports, 2025).

Columns and labels:
Type in all cases: biochemical
ADAMTS4 [1] = target: T1, ADAMTS4 (Homo sapiens, UniProt O75173); experiment: QF peptide cleavage assay (peptidolytic activity); conditions: compared to DMSO control
T1 construct: Human recombinant full-length FLAG-tagged ADAMTS4 and ADAMTS5 were expressed in HEK293T cells; FLAG; made in house; host or cells: HEK293T cells
T1 sequence (O75173 213-837): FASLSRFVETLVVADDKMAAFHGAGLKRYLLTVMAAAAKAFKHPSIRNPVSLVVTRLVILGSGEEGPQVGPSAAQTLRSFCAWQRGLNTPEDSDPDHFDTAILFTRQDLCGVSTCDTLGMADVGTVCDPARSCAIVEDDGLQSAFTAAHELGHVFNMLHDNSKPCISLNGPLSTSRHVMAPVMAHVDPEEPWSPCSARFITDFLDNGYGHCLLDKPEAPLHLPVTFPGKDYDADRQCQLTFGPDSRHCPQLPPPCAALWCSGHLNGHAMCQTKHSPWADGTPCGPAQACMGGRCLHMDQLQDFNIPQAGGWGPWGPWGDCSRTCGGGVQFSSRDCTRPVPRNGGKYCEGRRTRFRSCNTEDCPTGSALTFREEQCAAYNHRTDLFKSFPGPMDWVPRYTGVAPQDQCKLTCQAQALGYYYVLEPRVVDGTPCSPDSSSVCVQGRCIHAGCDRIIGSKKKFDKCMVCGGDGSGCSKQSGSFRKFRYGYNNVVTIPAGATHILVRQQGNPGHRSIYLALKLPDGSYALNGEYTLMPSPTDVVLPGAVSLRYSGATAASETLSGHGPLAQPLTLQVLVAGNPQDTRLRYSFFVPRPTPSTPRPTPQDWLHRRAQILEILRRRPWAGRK
Description: (§1) Human recombinant full-length FLAG-tagged ADAMTS4 and ADAMTS5 were expressed in HEK293T cells (Thermo Fisher Scientific) and purified by anti-FLAG immunoaffinity chromatography as before. Concentrations of active proteases were determined by active-site titrations with known concentrations of TIMP-3 (Bio-Techne, 973-TM-010), using QF peptides as substrates. V1-5GAG, a truncated version of versican V1 isoform comprising residues 21–694 and containing a C-terminal 6x His tag[67], was expressed in HE293T cells and purified by immobilized metal affinity chromatography as before.
(§2) QF peptide cleavage assays were conducted in TNC-B (50 mM Tris–HCl, pH 7.5, 150 mM NaCl, 10 mM CaCl2, and 0.02% NaN3) on a SpectraMax i3x Multi-Mode Platform (Molecular Devices, UK) in a total volume of 20 µl at 37℃ as before. ADAMTS4 (3.5 nM) or ADAMTS5 (4 nM) were incubated with compounds 1–4 (100 µM, diluted in TNC-B from 10 mM DMSO stocks) or DMSO for 1 h at 37 ℃ before addition of QF peptides fluorescein-5(6)-carbonyl-[…]N, N,N0,N0-tetramethyl-6-carboxyrhodamine, and fluorescein-5(6)-carbonyl-Thr-Glu-Ser-Glu - […]N, N,N0,N0-tetramethyl-6-carboxyrhodamine, respectively, each at 40 µM. Fluorescence intensity was recorded with an excitation wavelength of 485 nm and an emission wavelength of 535 nm every min for 2 h, expressed as relative fluorescence units and normalized against a blank containing only buffer and substrate. Fluorescence values were converted into residual activity by fixing as 100% the activity of the reactions containing an equal concentration (v/v) of DMSO instead of compound (DMSO control).

ADAMTS5 [2] = target: T2, ADAMTS5 (Homo sapiens, UniProt Q9UNA0); experiment: QF peptide cleavage assay (peptidolytic activity); conditions: 100 µM; compared to DMSO control
T2 construct: Human recombinant full-length FLAG-tagged ADAMTS4 and ADAMTS5 were expressed in HEK293T cells; FLAG; made in house; host or cells: HEK293T cells
T2 sequence (Q9UNA0 262-930): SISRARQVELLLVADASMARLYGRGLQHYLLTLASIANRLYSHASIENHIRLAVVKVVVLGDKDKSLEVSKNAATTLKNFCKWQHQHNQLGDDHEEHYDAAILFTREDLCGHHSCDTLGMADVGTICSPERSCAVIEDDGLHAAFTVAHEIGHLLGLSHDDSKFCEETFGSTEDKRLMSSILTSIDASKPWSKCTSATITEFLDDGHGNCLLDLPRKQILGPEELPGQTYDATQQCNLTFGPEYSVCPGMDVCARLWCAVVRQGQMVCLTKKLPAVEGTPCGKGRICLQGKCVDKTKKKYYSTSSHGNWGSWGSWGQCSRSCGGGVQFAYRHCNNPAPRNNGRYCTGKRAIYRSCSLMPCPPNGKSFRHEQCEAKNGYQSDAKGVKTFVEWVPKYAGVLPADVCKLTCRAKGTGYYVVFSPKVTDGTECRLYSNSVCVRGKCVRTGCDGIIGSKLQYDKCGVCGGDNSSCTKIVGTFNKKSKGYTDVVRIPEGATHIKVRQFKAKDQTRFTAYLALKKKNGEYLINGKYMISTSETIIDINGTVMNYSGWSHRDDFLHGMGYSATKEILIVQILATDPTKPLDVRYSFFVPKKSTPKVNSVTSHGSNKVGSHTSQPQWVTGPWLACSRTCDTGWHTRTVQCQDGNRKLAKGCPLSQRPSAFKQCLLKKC
Description: as §1, §2

ADAMTS4 [3] = target: T1, ADAMTS4; experiment: Versicanase assay (V1-5GAG, versikine sandwich ELISA); conditions: compared to DMSO control
Description: as §1
Compounds 1–4 (100 µM) or DMSO were incubated with ADAMTS4 (5 nM) or ADAMTS5 (0.4 nM) for 2 h at 37 °C, before addition of V1-5GAG (50 nM). At each time point, reactions were stopped by addition of ethylenediaminetetraacetic acid and ADAMTS-generated versican fragments (versikine) quantified by sandwich ELISA as before[29],[30],[38] using anti-DPEAAE neoepitope antibody (Life Technologies, PA1-1748 A, 5 µg/ml) and polyclonal anti-versican antibody (Abcam, ab171887, 3 µg/ml). For each reaction, the amount of versikine generated was derived from a standard curve (0–1.56 nM) of V1-5GAG completely digested with ADAMTS5. Initial velocities were calculated from the concentration of versikine generated as a function of reaction time. Percent of inhibition was calculated from the DMSO control reactions. IC50 values were determined using the formula: vi/v0 = 1/(1 + [I]/IC50) where vi is the initial velocity of substrate cleavage in the presence of the inhibitor at concentration [I] and v0 is the initial velocity in the presence of an equal concentration (v/v) of DMSO.

ADAMTS5 [4] = target: T2, ADAMTS5; experiment: Aggrecanase assay (bovine aggrecan, anti-ARGSV neoepitope immunoblot); conditions: 100 µM
Description: Aggrecanase assays were carried out as before. ADAMTS5 (1 nM) was incubated with compounds 2 and 3 or DMSO for 2 h at 37 °C in TNC-B buffer before addition of bovine articular aggrecan (UniProt ID: P13608, 270 nM) (Merck, A1960). After 2 h digestion at 37 °C, the reactions were stopped with ethylenediaminetetraacetic acid and the samples incubated with 0.1 U/ml of chondroitinase ABC (AMS Biotechnology, Abingdon, UK) and keratanase (endo-beta galactosidase, Merck, G6920) in deglycosylation buffer (50 mM sodium acetate, 25 mM Tris HCl pH 8.0) for 16 h at 37 °C to remove GAG chains.
Samples were separated by SDS-PAGE under reducing conditions (5% β-mercaptoethanol) on BOLT, 4–12%, Bis-Tris Gels (Invitrogen) in MES Running Buffer (NuPAGE). Proteins were transferred onto a nitrocellulose membrane using Trans-Blot Turbo™ Transfer System (BioRad), at 25 V, 2.5 A for 30 min. Membranes were blocked with 3% BSA/PBS for 1 h at room temperature. Aggrecan fragments generated by ADAMTS cleavage at E^392-A^393[8] or E^1953-A^1954[68] were detected using mouse monoclonal anti-ARGSV antibody (BC3, Life Technologies, MA3-16888, 4 µg/ml) or polyclonal anti-AGEG neoepitope antibody (serum, 1:200 dilution)[12],[33], respectively, followed by the appropriate horseradish peroxidase (HRP)-conjugated secondary antibodies (polyclonal Goat Anti-Mouse P0447, 0.1 ng/µl and polyclonal Goat Anti-Rabbit, P0448, 0.03 ng/µl, both from Agilent Technologies LDA UK Ltd). All antibodies were diluted in 0.5% bovine serum albumin (BSA)/PBS. Washes between each step were carried out in triplicate, for 15 min each, with PBS-Tween (0.1%). Following addition of the chemiluminescent HRP substrate (Millipore, WBKL30500) membranes were imaged using Bio-Rad Chemidoc Touch Imaging System. Analysis was carried out using BioRad ImageLab software (version 5.2.1) using sequential exposures to avoid saturation artifacts. Figures for unprocessed blots are included in Supplementary information Fig. S4 and Fig. S5 with highlighted regions (in red boxes) corresponding to the data reported in the main manuscript figures.

- inhibition at 100 µM (ADAMTS4 [1]): 48%
- inhibition of ADAMTS5 peptidolytic activity (ADAMTS5 [2]): significant inhibition
- inhibition at 100 µM (ADAMTS4 [3]): 42%
- inhibition of ADAMTS5 aggrecanase activity (ADAMTS5 [4]): ineffective
SMILES: CCC(C)N(Cc1cn(CCCO[C@@H]2O[C@H](CO[C@@H]3O[C@H](CO)[C@H](O)[C@H](O)[C@H]3O)[C@@H](O)[C@H](O)[C@H]2NC(C)=O)nn1)S(=O)(=O)c1ccc(-c2ccccc2)cc1 (stereo partly drawn) [compound 3, N-((2R,3R,4R,5 S,6R)-2-(3-(4-((N-(sec-butyl)-[1,1’-biphenyl]-4-sulfonamido)methyl)-1 H-1,2,3-triazol-1-yl)propoxy)-4,5-dihydroxy-6-((((2R,3R,4 S,5R,6R)-3,4,5-trihydroxy-6-(hydroxymethyl)tetrahydro-2 H-pyran-2-yl)oxy)methyl)tetrahydro-2 H-pyran-3-yl)acetamide]
